Source: US11219623B2, “Inflammasome inhibition for the treatment of Parkinson's disease, Alzheimer's disease and multiple sclerosis” (University of Kentucky Research Foundation, priority 2015, dated 2022)
In brackets after ≈: the same amount, converted by molar mass. Entries after “also recorded” stand apart in the source; their conditions may differ.

What was measured:
wild-type mice [1] = assay: Laser-induced choroidal neovascularization (CNV; wet AMD) in wild-type mice; conditions: N=16
Caspase-1 [2] = assay: Alu RNA-induced Caspase-1 activation, western blot, primary human RPE cells; type: cell-based; conditions: for Alu RNA-induced Caspase-1 activation/cleavage: concentration not given
From the text: The bottom row in FIG. 5 is a vinculin loading control.

[3] = LogP, partition coefficient in 1-octanol; type: physicochemical; conditions: 1-octanol partition
[4] = tested on: human LINE-1 retrotransposon; assay: EGFP cell culture L1 retrotransposition assay in HeLa cells; type: cell-based; conditions: 7 days after transfection, flow cytometry
Description: These findings pave way for the rational re-design and improvement of nucleoside analogs as novel therapeutics. The enhanced green fluorescent protein (EGFP) cell culture L1 retrotransposition assay was performed in HeLa cells. […] Transfected cells were selected in puromycin. 7 days after transfection, cells that underwent retrotransposition (EGFP-positive) were assayed by flow cytometry. Cells were gated based on background fluorescence of plasmid JM111, which has two point mutations in L1-ORF1 that abolish retrotransposition. Data are normalized with RPS set to 1.

wild-type mice [5] = assay: pAlu-induced RPE degeneration, mouse model of dry AMD; type: in vivo
Description: Mouse studies were conducted to study treatment with NRTIs or derivatives.

Caspase-1 [6] = assay: iGLuc luminescence assay of ATP-induced Caspase-1 activation in J774 iGLuc cells; type: cell-based, mouse; conditions: for Caspase-1 cleavage (luminescence): ATP 5 mM, N=3
Description: Caspase-1 is the enzyme at the core of the inflammasome complex and is an important danger response signal and mediator of RPE cell death in AMD. […] Importantly, there was some difference between individual compounds in terms of the dose response curve, emphasizing the need to test each compound (with unique R group(s)) individually.
To obtain the data set forth in FIGS. 64-73, an iGLuc assay was conducted (modified from Bartok et al. iGLuc: a luciferase-based inflammasome and protease activity reporter. Nature Methods 2013; 10(2):147-54). Briefly, 100,000 iGLuc cells per well were plated in a 96 well plate overnight. The next morning, media is aspirated from the plate and replaced with 75 μL of serum free DMEM with drugs (NRTIs or modified NRTIs) for 30 min. After 30 minutes of drug exposure, 20 mM ATP (25 μL) is added for a final concentration of 5 mM. 50 μL of media from each well is collected and 50 μL of coelenterazine 4.4 μM is added to each sample, and luminescence is read immediately.

IL-1 beta = assay: LPS/ATP-induced IL-1 beta activation in Raji TK− and TK+ cells, western blot; type: cell-based
From the text: (§1) To determine whether LPS/ATP-induced inflammasome activation can be inhibited without RT inhibition, the present inventors utilized thymidine kinase-deficient (Raji/TK^−) and -expressing (Raji/TK^+) cells (Balzarini et al., 1989).

[7] = tested on: GFP-expressing lentivirus; assay: GFP-expressing lentivirus transduction/replication assay in HeLa cells; type: cell-based; conditions: for lentivirus replication (GFP-positive cells per field): 10 μM, 72 hours, MOI 20
Description: All drugs were added at a concentration of 10 μM. Cells were imaged for GFP expression 72 hours after addition of lentivirus. GFP-positive cells per field of view were recorded. n=4-11, error bars S.E.M. Reverse transcription of lentivirus is essential for GFP expression; modified NRTIs should not block reverse transcriptase, whereas NRTIs are known to block reverse transcriptase.
The present disclosure further provides the results of additional experiments in FIG. 21-FIG. 23.

human P2X7 receptor = target: T1, human P2X7 receptor (Homo sapiens, UniProt Q99572); conditions: HEK293 stably expressing human P2X7; concentration not given
T1 sequence (Q99572 1-595): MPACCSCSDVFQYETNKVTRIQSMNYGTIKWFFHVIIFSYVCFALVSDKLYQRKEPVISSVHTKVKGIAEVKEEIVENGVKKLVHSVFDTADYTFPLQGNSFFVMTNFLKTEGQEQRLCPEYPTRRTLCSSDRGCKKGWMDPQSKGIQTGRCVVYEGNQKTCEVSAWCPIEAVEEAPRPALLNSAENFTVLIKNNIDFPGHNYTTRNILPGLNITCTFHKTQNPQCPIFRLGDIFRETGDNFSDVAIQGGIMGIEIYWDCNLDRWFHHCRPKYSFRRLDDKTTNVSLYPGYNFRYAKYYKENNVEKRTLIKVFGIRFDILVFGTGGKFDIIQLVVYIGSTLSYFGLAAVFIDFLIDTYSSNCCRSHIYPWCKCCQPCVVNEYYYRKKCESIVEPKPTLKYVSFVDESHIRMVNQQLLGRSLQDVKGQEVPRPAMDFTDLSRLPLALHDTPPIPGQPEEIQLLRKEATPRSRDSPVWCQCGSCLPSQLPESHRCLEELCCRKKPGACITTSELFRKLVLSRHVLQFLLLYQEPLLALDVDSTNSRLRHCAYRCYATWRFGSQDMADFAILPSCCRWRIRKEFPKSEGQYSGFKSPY

[8] = tested on: Raji TK^+ and Raji TK^− cells; assay: Phosphorylation of AZT to AZT-triphosphate in Raji TK+ / TK− cells, LC-MS; type: in vitro ADME
From the text: as §1
FIG. 50 is a standard curve of AZT-TP standards (black circle). […] FIG. 50 is representative of two experiments.

mtDNA = assay: Relative quantity of mtDNA, quantitative PCR, primary human RPE cells; conditions: 50 μM; four days; relative to DMSO
Caspase-1 [9] = assay: Iron (III) ammonium citrate-induced Caspase-1 activation, western blot, primary human RPE cells; type: cell-based; conditions: 25 μM, Fe(III) ammonium citrate (100 μM)
From the text: Caspase-1 activation (p20 subunit) in primary human retinal pigment epithelium (RPE) cells in the presence of iron (III) ammonium citrate was studied.
Caspase-1 activation (p10 subunit) in primary human RPE cells in the presence of iron (III) ammonium citrate was studied.
Alu RNA is a toxic endogenous retroelement that accumulates in and causes death of the RPE in patients with dry AMD. […] FAC activates Caspase-1 via an Alu RNA intermediate, and induces NLRP3-dependent RPE degeneration (Gelfand et al. Cell Reports 2015). Fe(III) ammonium citrate (100 μM)-induced Caspase-1 activation in primary human RPE cells, monitored by western blotting, is reduced by TM-3TC (25 μM), d4T-ene (25 μM), 2Me-d4T (25 μM), Me-AZT (25-100 μM), and 2Me-AZT (25 μM). N=3-4.

wild-type mice [10] = assay: Poly IC-induced RPE degeneration in mice; type: in vivo, mouse; conditions: intravitreous; measured 7 days after poly IC
Solubility in water = type: physicochemical; conditions: aqueous buffer; Water pH 7.2 at 37° C.
mice [11] = assay: Iron-induced RPE degeneration in mice; type: in vivo, mouse; conditions: intraperitoneal 25 mg/kg days 1 to 6; read day 7
mice [12] = assay: Amyloid beta-induced RPE degeneration in mice; type: in vivo, mouse; conditions: intraperitoneal 25 mg/kg days 1 to 6; read day 7
JR5558 mice = assay: Spontaneous CNV in JR5558 mice, fluorescein angiography dye leakage; type: in vivo, mouse
From the text: JR5558 mice develop spontaneous choroidal neovascularization (CNV) and are an animal model of wet/neovascular age-related macular degeneration (AMD). The activity of the CNV lesions can be monitored using fluorescein angiography to assess the degree of dye leakage from the lesions, as is done in humans with this disease. FIGS. 81 and 82 are representative images from two JR5558 mice (N=8). The first and third row of FIGS. 81 and 82 show time dependent dye leakage from pre-existing CNV lesions in the left eye (first row) and right eye (third row) of a first and second JR5558 mouse, respectively.

wild-type mice [13] = assay: Alu RNA-induced RPE degeneration, mouse model of dry AMD
[14] = intraperitoneal 25 mg/kg twice daily

| SMILES | Alu RNA-induced Caspase-1 activation/cleavage (Caspase-1 [2]) | logP [3] | L1 retrotransposition (EGFP-positive cells) [4] | Caspase-1 cleavage (luminescence) (Caspase-1 [6]; drug 1 nM-100 μM) | lentivirus replication (GFP-positive cells per field) [7] | relative quantity of mtDNA (mtDNA depletion) (mtDNA) | pAlu-induced RPE degeneration (wild-type mice [5]; [14]) | poly IC-induced RPE degeneration (wild-type mice [10]) | solubility (Solubility in water) [µg/mL] | Iron-induced RPE degeneration (mice [11]) | further results |
| --- | --- | --- | --- | --- | --- | --- | --- | --- | --- | --- | --- |
| Cc1cn([C@H]2C[C@H](N=[N+]=[N-])[C@@H](CO)O2)c(=O)[nH]c1=O [AZT, 3′-azido-2′,3′-dideoxythymidine, reference compound] | block Caspase-1 cleavage | -0.41 | blocked L1 retrotransposition | reduces Caspase-1 cleavage in a dose-dependent fashion | blocked lentivirus GFP expression | – | – | – | – | – | laser injury-induced CNV volume (wild-type mice [1]; intravitreous 0.55 nmol): reduced laser injury-induced CNV volume; Alu RNA-induced Caspase-1 maturation (Caspase-1 [2]; 50-100 uM, 24 hours after Alu administration): blocked; pAlu-induced RPE degeneration (wild-type mice [5]; intraperitoneal administration, dose not stated): blocked RPE degeneration; IL-1 beta activation by LPS/ATP (IL-1 beta; Raji TK+ cells): blocks IL-1 beta activation; IL-1 beta activation by LPS/ATP (IL-1 beta; Raji TK− cells): blocks IL-1 beta activation; P2X7-dependent YO-PRO-1 uptake induced by bzATP (human P2X7 receptor): inhibited P2X7-dependent uptake; formation of AZT-triphosphate (AZT-TP) ([8]; Raji TK+ cells): produced AZT-TP; formation of AZT-triphosphate (AZT-TP) ([8]; Raji TK− cells): not detectable |
| COCC1C=C[C@H](n2cc(C)c(=O)n(C)c2=O)O1 (stereo partly drawn) [Kamuvudine 2Me-d4T, 1-[(2R)-5-(methoxymethyl)-2,5-dihydrofuran-2-yl]-3,5-dimethyl-1,2,3,4-tetrahydropyrimidine-2,4-dione] | – | 0.63 | no effect on L1 activity | – | do not block lentivirus replication | do not exhibit mtDNA depletion | restored to healthy RPE morphology/intercellular junctions | blocks this degeneration | 10000 (≈ 39.6 mM) | blocked the development of RPE degeneration | iron-induced Caspase-1 activation (Caspase-1 [9]): reduced; iron-induced Caspase-1 activation (Caspase-1 [9]; listed as 2me-d4T): blocked iron-induced Caspase-1 activation; Amyloid beta-induced RPE degeneration (mice [12]): blocked the development of RPE degeneration |
| COC[C@@H]1O[C@H](n2ccc(N(C)C)nc2=O)CS1 [Kamuvudine 3Me-3TC, 4-(dimethylamino)-1-[(2R,5S)-2-(methoxymethyl)-1,3-oxathiolan-5-yl]-1,2-dihydropyrimidin-2-one] | – | 0.09 | no effect on L1 activity | reduces Caspase-1 cleavage in a dose-dependent fashion | do not block lentivirus replication | do not reduce mtDNA | protects against RPE degeneration | – | 7000 (≈ 25.8 mM) | – | CNV lesion leakage compared to 3TC (JR5558 mice; 62.5 ng vs 125 ng 3TC): greater reduction in CNV lesion leakage; activity (dye leakage) of pre-existing CNV lesions (JR5558 mice; single intravitreous 62.5 ng, 3 days after administration): suppress the activity of pre-existing CNV lesions; Alu RNA induced Caspase-1 activation (Caspase-1 [2]; 25-100 μM (25 and 100 μM), listed as TM-3TC): blocked Alu-induced Caspase-1 activation; also recorded: reduced; iron-induced Caspase-1 activation (Caspase-1 [9]; listed as TM-3TC): blocked iron-induced Caspase-1 activation; also recorded: reduced; Alu RNA-induced RPE degeneration (wild-type mice [13]; intraperitoneal 25 mg/kg, twice daily for 6 days): protects against RPE degeneration |
| COC[C@@H]1C=C[C@H](n2cc(C)c(=O)[nH]c2=O)O1 [Me-d4T, 1-[(2R,5S)-5-(methoxymethyl)-2,5-dihydrofuran-2-yl]-5-methyl-1,2,3,4-tetrahydropyrimidine-2,4-dione] | blocks Caspase-1 activation | 0.41 | no effect on L1 activity | – | do not block lentivirus replication | do not exhibit mtDNA depletion | – | blocks this degeneration | 30000 (≈ 126 mM) | blocked the development of RPE degeneration | choroidal neovascularization (CNV) volume (wild-type mice [1]; intravitreous 0.14 nmol, day 7): reduced choroidal neovascularization (CNV) volume; Caspase-1 cleavage (luminescence) (Caspase-1 [6]; drug 100 μM): reduces Caspase-1 cleavage in a dose-dependent fashion; reduction of inflammasome activation (Caspase-1 [6]; ATP (5 mM), mouse J774 iGLuc cells, FIGS. 70-73): about 70%; replication of GFP-expressing lentivirus ([7]; FIG. 22, concentration not given): does not block lentivirus replication; Alu-induced RPE degeneration (wild-type mice [13]; intraperitoneal injection, dose not stated): prevents Alu-induced RPE degeneration |
